{"source": "patent US20200276145A1", "about": "“REDUCING SIDE EFFECTS OF SHORT ACTING NO DONORS” (G. POHL-BOSKAMP GMBH & CO. KG, priority 2016, published 2020)", "key": {"[1]": {"conditions": "after oral administration; cited from earlier work"}, "[2]": {"experiment": "Individual dose titration of sublingual nitroglycerin, side effects (Examples 1 and 2)", "assay_type": "in vivo, human"}, "[3]": {"experiment": "Phase IIa forced-titration trial of nitroglycerin sublingual powder in PAOD patients, interim analysis of headache (Example 3)", "assay_type": "in vivo, human", "conditions": "for Headache days (%): of study days corrected by drop-out days", "description": "The patients are advised to take the dosages in the morning, noon and evening so that the short acting NO donor is administered in an intermittent manner.\nParticipants report adverse effects during the study with headache being one of the adverse effects.\nThe study has not yet been finalized but an interim analysis regarding headache as an adverse effect of the study drug has been performed (FIG. 2, Table 1-3).\nAt the time point of the interim analysis the study was still blinded, so with regard to patients' reported adverse event headache it could not be distinguished between the frequency of headache in the verum and the placebo group.\nAs the titration of the study medication takes place in the first 3 weeks, the analysis is focused on reported headache in the first three weeks plus in week 4 to also monitor possible late or ongoing side effects.\nThe analysis includes 35 participants so far which are at different time points of the study protocol. In FIG. 1 the individual headache days of the 35 participants are shown. Some participants have already reached the end of the 12-week treatment period and are in the follow-up period, some participants are still on treatment, but all participants […] have surpassed the titration phase and are on the final dosage of 0.7 mg GTN."}, "[4]": {"conditions": "total of 2453 study days so far"}, "[5]": {"conditions": "weeks 1-4, of 927 corrected study days"}}, "note": "Where “and” joins values, the source holds several entries; their conditions need not be identical. Equal entries are not always repeated.", "data": [{"smiles": "O=[N+]([O-])O[C@@H]1CO[C@H]2[C@@H]1OC[C@@H]2O", "note": "[isosorbide mononitrate]", "values": [{"measurement": "Halftime", "setting": "[1]", "result": "around 5 hours"}]}, {"smiles": "O=[N+]([O-])OCC(CO[N+](=O)[O-])O[N+](=O)[O-]", "note": "[nitroglycerin]", "values": [{"measurement": "Side effects", "setting": "[2]; Example 1, final dosage 0.7 mg after weekly increase 0.15-0.3-0.5-0.7 mg", "result": "without side effects"}, {"measurement": "Side effects", "setting": "[2]; Example 1, person, approximately 0.15 mg GTN TID sublingual powder", "result": "no headache or other known GTN side effects"}, {"measurement": "Side effects", "setting": "[2]; Example 1, sublingual nitroglycerin in a therapeutic dose, no titration", "result": "severe headache"}, {"measurement": "Side effects", "setting": "[2]; Example 2, 0.15 mg TID", "result": "no nausea or headache or other known GTN side effects"}, {"measurement": "Side effects", "setting": "[2]; Example 2, final dosage 0.4 mg TID after weekly increase 0.15-0.3-0.4 mg", "result": "without side effects"}, {"measurement": "Side effects", "setting": "[2]; Example 2, person, initial dose 0.4 mg sublingual, no titration", "result": "nausea and mild headache"}, {"measurement": "Remaining share of participant headache days when the 3 participants are excluded", "setting": "[3]; 3 participants with possible chronic headache or migraine excluded", "result": 15, "unit": "%"}, {"measurement": "Possibly headache related drop-outs", "setting": "[3]; during the titration in the first 4 weeks", "result": "one"}, {"measurement": "Headache days of the 3 participants with possible chronic headache or migraine background", "setting": "[3]; first 4 weeks", "result": 82, "unit": "days"}, {"measurement": "Participants in whom the headache lasted more than a week", "setting": "[3]; first 4 weeks", "result": 5, "unit": "participants"}, {"measurement": "Share of headache days due to the 3 participants with possible chronic headache or migraine background", "setting": "[3]; first 4 weeks", "result": 65, "unit": "%"}, {"measurement": "Participants with headache on a single day", "setting": "[3]; first 4 weeks, not during the first three days, of 35", "result": 6, "unit": "participants"}, {"measurement": "Participants with headache that lasted more than one day", "setting": "[3]; first 4 weeks, of 35", "result": 6, "unit": "participants"}, {"measurement": "Additional participants dropped out due to headache", "setting": "[3]; further course of the therapy", "result": 2, "unit": "participants"}, {"measurement": "Overall headache frequency in the present study", "setting": "[3]; interim analysis, blinded", "result": "below 30%"}, {"measurement": "Headache days recorded for the 3 participants with continuous headache", "setting": "[3]; overall study", "result": "209 days and 212 days"}, {"measurement": "Share of total headache days due to the 3 participants with continuous headache", "setting": "[3]; overall study", "result": 85, "unit": "%"}, {"measurement": "Participants that have headache during the first days of treatment", "setting": "[3]; starting dose 0.3 mg GTN", "result": 5, "unit": "participants"}, {"measurement": "Percentage of participants that have headache during the first days of treatment", "setting": "[3]; starting dose 0.3 mg GTN", "result": 14.3, "unit": "%"}, {"measurement": "Participant headache days recorded so far (overall study)", "setting": "[3]; [4]", "result": "245 days and 251 days"}, {"measurement": "Percentage of headache days of total study days so far", "setting": "[3]; [4]", "result": 10, "unit": "%"}, {"measurement": "Participants with possible chronic headache or migraine history", "setting": "[3]; week 1", "result": 3}, {"measurement": "Headache corrected by participants with possible chronic headache or migraine history (%)", "setting": "[3]; week 1, 0.3 mg GTN", "result": 20, "unit": "%"}, {"measurement": "Participant headache days corrected by participants with possible chronic headache or migraine history (%)", "setting": "[3]; week 1, 0.3 mg GTN", "result": 7.8, "unit": "%"}, {"measurement": "Headache (%) of participants", "setting": "[3]; week 1, 0.3 mg GTN, blinded", "result": 28.6, "unit": "%"}, {"measurement": "Headache days (%)", "setting": "[3]; week 1, 0.3 mg GTN", "result": 15.5, "unit": "%"}, {"measurement": "Participants with possible chronic headache or migraine history", "setting": "[3]; week 2", "result": 3}, {"measurement": "Headache corrected by participants with possible chronic headache or migraine history (%)", "setting": "[3]; week 2, 0.5 mg GTN", "result": 11.4, "unit": "%"}, {"measurement": "Participant headache days corrected by participants with possible chronic headache or migraine history (%)", "setting": "[3]; week 2, 0.5 mg GTN", "result": 4.2, "unit": "%"}, {"measurement": "Headache (%) of participants", "setting": "[3]; week 2, 0.5 mg GTN, blinded", "result": 20, "unit": "%"}, {"measurement": "Headache (%) of participants", "setting": "[3]; week 2, 0.5 mg GTN, blinded, listed as GTN", "result": 20.0, "unit": "%"}, {"measurement": "Headache days (%)", "setting": "[3]; week 2, 0.5 mg GTN", "result": 13.0, "unit": "%"}, {"measurement": "Change of headache frequency as a result of the increased dosage", "setting": "[3]; week 2, 3 or 4 versus week 1", "result": "did not monitor an increased headache frequency"}, {"measurement": "Participants with possible chronic headache or migraine history", "setting": "[3]; week 3", "result": 3}, {"measurement": "Headache corrected by participants with possible chronic headache or migraine history (%)", "setting": "[3]; week 3, 0.7 mg GTN", "result": 5.7, "unit": "%"}, {"measurement": "Participant headache days corrected by participants with possible chronic headache or migraine history (%)", "setting": "[3]; week 3, 0.7 mg GTN", "result": 3.1, "unit": "%"}, {"measurement": "Headache (%) of participants", "setting": "[3]; week 3, 0.7 mg GTN, blinded", "result": 14.3, "unit": "%"}, {"measurement": "Headache days (%)", "setting": "[3]; week 3, 0.7 mg GTN", "result": 12.3, "unit": "%"}, {"measurement": "Participants with possible chronic headache or migraine history", "setting": "[3]; week 4", "result": 3}, {"measurement": "Headache corrected by participants with possible chronic headache or migraine history (%)", "setting": "[3]; week 4, 0.7 mg GTN", "result": 0, "unit": "%"}, {"measurement": "Participant headache days corrected by participants with possible chronic headache or migraine history (%)", "setting": "[3]; week 4, 0.7 mg GTN", "result": 0, "unit": "%"}, {"measurement": "Headache (%) of participants", "setting": "[3]; week 4, 0.7 mg GTN, blinded", "result": 8.6, "unit": "%"}, {"measurement": "Headache days (%)", "setting": "[3]; week 4, 0.7 mg GTN", "result": 9.7, "unit": "%"}, {"measurement": "Headache days during the first 4 weeks", "setting": "[3]; [5]", "result": "118 days and 127 days"}, {"measurement": "Overall percentage of headache days during the first 4 weeks", "setting": "[3]; [5]", "result": 12.7, "unit": "%"}]}]}
